Source: patent US5015647A, “Method for treating viral infections” (Burroughs Wellcome Co., priority 1989, dated 1991)

Legend:
[1] = molecular target: T1, adenosine (purine) receptors (Cavia porcellus, UniProt P47745); experiment: guinea pig ileum twitch test, antagonism of purine receptors (agonist 2-chloroadenosine); details: slope in parentheses after pA2
T1 construct: Ilea were removed from sacrificed guinea pigs and placed in organ baths; from tissue; host or cells: guinea pig ileum
T1 sequence (P47745 1-326): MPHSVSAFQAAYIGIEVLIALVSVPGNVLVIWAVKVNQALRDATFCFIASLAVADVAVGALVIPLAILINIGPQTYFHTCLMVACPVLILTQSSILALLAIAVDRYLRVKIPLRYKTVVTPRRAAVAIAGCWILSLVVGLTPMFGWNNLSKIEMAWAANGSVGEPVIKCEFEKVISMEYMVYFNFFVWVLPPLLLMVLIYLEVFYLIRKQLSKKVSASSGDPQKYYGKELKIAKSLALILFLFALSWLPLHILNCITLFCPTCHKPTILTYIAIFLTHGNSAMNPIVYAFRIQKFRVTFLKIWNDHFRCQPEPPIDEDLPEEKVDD
Protocol: Accordingly, a representative number of compounds of the present invention were tested for their ability to antagonise the purine receptors using the guinea pig ileum test system.
Ilea were removed from sacrificed guinea pigs and placed in organ baths containing oxygenated Krebs-Henseleit buffer. After equilibration, the ilea were stimulated to contract (twitch contraction) using an electrical field-stimulus of 0.1 Hz, 0.5 ms duration and maximal voltage. Under these conditions, the twitch contraction results from the release of acetylcholine.
Concentration response curves to the purine agonist, 2-chloroadenosine, were determined first in the absence and then in the presence of multiple concentrations of the compounds of the invention. One concentration of each compound was used per tissue. Quantification of purine receptor antagonism was accomplished using the Schild regression technique, i.e. plots of log (dose-ratio-1) vs log compound concentration, and the pA2 determined by regression of the data points to the x-intercept, where log (dose-ratio-1) is zero.

HIV = experiment: anti-HIV activity, in-vitro assay system; type: cell-based; parameters: key to ED50 (expressed as active (+) or very active (++)): +: active; ++: very active; details: for EC50: Human immunodeficiency virus 1, 50% effective dose estimated, read-out: μM ED50; for EC50 / ED50 (expressed as active (+) or very active (++)): in vitro anti-HIV; for ED50 (expressed as active (+) or very active (++)): grade
Protocol: The anti-HIV activity of various compounds was tested using an in-vitro assay system as described in H Mitsuya et al; (Proc Natl. Acad.Sci. USA Vol 82 pp 7096-7100, October 1985)

| SMILES | slope (Schild regression) [1] | EC50 (HIV) [µM] | ED50 (expressed as active (+) or very active (++)) (HIV) | antiviral / anti-retroviral activity, in words (HIV; against AIDV / retroviruses, statement in words, listed as compound 14) |
| --- | --- | --- | --- | --- |
| CCCn1c(=O)c2nc(-c3ccc(/C=C/C(=O)O)cc3)[nH]c2n(CCC)c1=O [Example 6, (E)-4-(1,2,3,6-tetrahydro-2,6-dioxo-1,3-dipropyl-9H-purin-8-yl)cinnamic acid] | 0.9 |  |  |  |
| CCCn1c(=O)n(C)c(=O)c2nc(-c3ccc(/C=C/C(=O)O)cc3)[nH]c21 [Example 11, (E)-4-(1,2,3,6-tetrahydro-1-methyl-2,6-dioxo-3-propyl-9H-purin-8-yl)cinnamic acid] | 1.0 |  |  |  |
| CCCCn1c(=O)c2nc(-c3ccc(/C=C/C(=O)O)cc3)[nH]c2n(CCCC)c1=O [Example 14, (E)-4-(1,3-dibutyl-1,2,3,6-tetrahydro-2,6-dioxo-9H-purin-8-yl)cinnamic acid] | 1.0 | 30 | + |  |
| O=C(O)/C=C/c1ccc(-c2nc3c(=O)n(Cc4ccccc4)c(=O)n(Cc4ccccc4)c3[nH]2)cc1 [Example 15, (E)-4-(1,3-dibenzyl-1,2,3,6-tetrahydro-2,6-dioxo-9H-purin-8yl) cinnamic acid] | 0.9 | 3 to 15 | ++ | especially potent activity against AIDV |
| Cn1c(=O)c2nc(-c3ccc(/C=C/C(=O)O)cc3)[nH]c2n(Cc2ccccc2)c1=O [Example 18, (E)-4-(3-benzyl-1,2,3,6-tetrahydro-1-methyl-2,6-dioxo-9H-purin-8yl) cinnamic acid] | 0.9 |  |  |  |
| CC(C)Cn1c(=O)c2nc(-c3ccc(/C=C/C(=O)O)cc3)[nH]c2n(CC(C)C)c1=O [Example 19, (E)-4-(1,2,3,6-tetrahydro-1,3-diisobutyl-2,6-dioxo-9H-purin-8-yl)cinnamic acid] | 1.0 |  |  |  |
| CCCn1c(=O)n(Cc2ccccc2)c(=O)c2nc(-c3ccc(/C=C/C(=O)O)cc3)[nH]c21 [Example 25, (E)-4-(1-Benzyl-1,2,3,6-tetrahydro-2,6-dioxo-3-propyl-9H-purin-8-yl)cinnamic acid] |  | 30 | + |  |
| CCCn1c(=O)c2nc(-c3ccc(/C=C/C(=O)O)cc3)[nH]c2n(Cc2ccccc2)c1=O [Example 26, (E)-4-(3-Benzyl-1,2,3,6-tetrahydro-2,6dioxo-1-propyl-9H-purin-8-yl)cinnamicacid] |  | 30 | + |  |
| Cn1c(=O)c2[nH]cnc2n(C)c1=O [THEOPHYLLINE, 1,3-dimethylxanthine, reference compound] | 1.1 |  |  |  |
